Reference: patent US10543157B2, “Method of treating a hair disorder with N-hydroxypyridinones” (The Procter & Gamble Company, priority 2016, dated 2020)
Counter-ions that a name gives are not always drawn.

Tests used:
[1] = tested on: telogen (resting) hairs of scalp; assay: Clinical study #2, telogen hair count; format: in vivo, human; conditions: for TELOGEN Hair counts Change from Baseline Mean +/− SE / TELOGEN Hair counts Difference of CFBs Mean +/− SE: time not given in table (text: week 8)
Source text: (§1) Subjects have the imaging sites located and tattoos placed within the imaging sites to mark the area that will be used for image capture. Three days post-tattoo placement, subjects will begin the pretreatment phase during which they applied their pretreatment products on the designated side of their scalp (left/right) for 11 days as a way of training subjects on the tonic application procedures. After the pretreatment phase has been completed, qualified subjects begin the 16-week treatment phase. Within each treatment group, left/right product assignments are randomized (tonic product and vehicle). In the first study subjects applied the assigned tonic product to the designated side of the scalp twice a day. The morning before each site visit, subjects wash and dry their hair and refrain from applying their test products and any styling aides until after their study visit has been completed. Subjects are instructed to wash hair at least every other day with a standard 2-in-1 shampoo during the entire washout and treatment phases. In the second study, after the pretreatment phase has been completed, subjects had their hair washed using the standard shampoo (½ head washing procedure) by a trained operator and blown dry by themselves. After washing hair (no treatment products and no styling products after washing), the two 1.8×1.8 cm imaging sites on the midfrontal/parietal scalp are clipped for hair count analysis as described below. Site staff then apply the two treatment products to the assigned sites (3×3 cm) on the scalp. Subjects return to the study site later in the day and site staff apply the 2nd application of treatment products for that day (i.e. twice a day tonic application) to each site. The following day, the subjects return to the test site and have their hair washed using the standard shampoo (½ head washing procedure) by site staff and blown dry themselves. Images of the two sites are captured for anagen hair count.
(§2) The following day and for every day during the 8-week treatment phase subjects returned to the study site in the morning and had their hair washed by site staff (½ head washing procedure) and blown dry by themselves in the morning before the 1st application of treatment products of the day. Site staff then apply the two treatment products to the assigned sites (3×3 cm) on the scalp. Subjects return to the study site later in the day and site staff apply the 2nd application of the treatment products for that day (i.e. twice a day tonic application) to each site.
(§3) An efficacy end point of these studies is the change from baseline in target area hair count (hairs/cm2) at week 8 and/or 16, as applicable. Initial hair count and growth phase assessments are performed at baseline and at weeks 8 and 16, as applicable, in a designated target area of the scalp identified by the mini tattoo applied at baseline. The assessments are performed using a 1.8-cm2 square template centered over the mini tattoo. Hair within the template is clipped to approximately 1 mm in length. Photographic imaging equipment is supplied by Canfield Scientific Inc (Fairfield, N.J.) and is used to take macrophotographs of the shaved target area. The equipment comprises a Nikon D-SLR camera body (Nikon Corporation, Tokyo, Japan), Nikkor 60 MM F2.8 lens (Nikon Corporation), and a Canfield Epiflash (Canfield Scientific Inc, Fairfield, N.J.) with a glass contact plate and is preset and locked for magnification, f-stop, and exposure control. The analysis of the hair count photographs is performed by Canfield's core imaging laboratory. (ref: Harness J A, Kohut B, Garner J, Canfield W, Canfield D, Bertolino A. Evaluation of hair count and thickness measurements in male and female pattern hair loss using a computer-assisted technique. Poster presented at: European Hair Research Society; Zurich, Switzerland, Jul. 7-9, 2005.) The same 1 cm^2 area is mapped among the baseline, week 8, and week 16 images using the dot tattoo as a reference. […]

[2] = tested on: scalp hair (target area hair count); assay: Clinical study #1, split-scalp, total hair count; format: in vivo, human; conditions: for Total Hair Count Change from Baseline Mean +/− SE / Total Hair Count Difference of CFBs (active minus vehicle) Mean +/− SE: topical twice a day, test compound 1%, minoxidil 2% (Rogaine for Women)
Procedure: (§4) Two randomized, double-blind, vehicle-controlled split-scalp studies are conducted as follows:
Two weeks prior to the Baseline visit, subjects are randomized into one of the 2 treatment groups appearing in the table below.
as §1
as §3, with “reference. Each image is then assigned a definite tracking number and randomized before analysis. The compliant and validated Canfield Hair Metrix (Canfield Scientific Inc, Fairfield, N.J.) image analysis application measures the total number of hair fibers and number of telogen and anagen hair.” for “reference.”

[3] = tested on: scalp hair (target area hair count); assay: Clinical study #2, split-scalp, total hair count; format: in vivo, human; conditions: topical twice a day
Procedure: as §4, §1
as §2, with “The following day and for every day during the 8-week treatment phase subjects returned to the” left out
An efficacy end point of these studies is the change from baseline in target area hair count (hairs/cm2) at week 8 and/or 16, as applicable. […]

[4] = tested on: anagen (growing) hairs of scalp; assay: Clinical study #2, anagen hair count; format: in vivo, human; conditions: for ANAGEN Hair counts Change from Baseline Mean +/− SE / ANAGEN Hair counts Difference of CFBs Mean +/− SE: time not given in table (text: week 8)
Source text: as §1, §2
as §3, with “control.” for “control. The analysis of the hair count photographs is performed by Canfield's core imaging laboratory. (ref: Harness J A, Kohut B, Garner J, Canfield W, Canfield D, Bertolino A. Evaluation of hair count and thickness measurements in male and female pattern hair loss using a computer-assisted technique. Poster presented at: European Hair Research Society; Zurich, Switzerland, Jul. 7-9, 2005.) The same 1 cm^2 area is mapped among the baseline, week 8, and week 16 images using the dot tattoo as a reference.”

VEGF = assay: In-vitro cell based VEGF induction (ELISA); conditions: human dermal fibroblasts, 24 hrs treatment, spent media, normalized to ATP
Source text: (§5) Wherein R′ and R″ are independently either hydrogen or a substituted or unsubstituted hydrocarbon group having between 1 and 20 carbon atoms. Compounds of this class can be synthesized following the procedure disclosed in U.S. Pat. No. 5,675,013. In certain aspects, the 2-pyridinol-N-oxide compound is 1-hydroxy-6-(octyloxy)-2(1H)-Pyridinone. This compound can be synthesized following the procedure disclosed in U.S. Pat. No. 5,675,013. Methods In-Vitro Cell Based Method for Measuring HIF-1 Stabilization and VEGF Induction: Human dermal fibroblasts are maintained and treated in Dulbecco's Modified Eagle Medium (DMEM) supplemented with 10% fetal bovine serum (FBS) and 1% penicillin/streptomycin. For HIF and VEGF experiments, cells are plated at 10,000 cells per well in 96-well plates. After two days, cells are treated with materials of interest solubilized in DMSO. DMSO concentration in media never exceeded 0.5%. Treatment times are 4 hrs for HIF-1a and 24 hrs for VEGF. Analytes are assayed via ELISA. After 4 hrs treatment, cells are fixed and assayed for HIF-1a using the Human/Mouse Total HIF-1a Immunoassay (R&D Systems) according to manufacturer instructions. After 24 hrs treatment, spent culture media are harvested and assayed for VEGF using the V-PLEX Human VEGF Kit (MSD) according to manufacturer instructions. HIF-1a and VEGF signals are normalized to cytochrome c signal and ATP signal, respectively, and then compared to that of untreated control. Half-maximal effective concentrations of materials are calculating using GraphPad Prism version 6 software or any other suitable software.

HIF-1α = assay: In-vitro cell based HIF-1 stabilization (ELISA); conditions: human dermal fibroblasts, 4 hrs treatment, normalized to cytochrome c
Source text: as §5

[5] = Study #2, 16 weeks (so in the source)
[6] = versus vehicle (minoxidil: versus baseline and vehicle), week 8

SMILES	TELOGEN Hair counts Change from Baseline Mean +/− SE [1]	TELOGEN Hair counts Difference of CFBs Mean +/− SE [1]	Total Hair Count Change from Baseline Mean +/− SE ([2]; Study #1, 8 weeks)	Total Hair Count Difference of CFBs (active minus vehicle) Mean +/− SE ([2]; Study #1, 8 weeks)	Total Hair Count Change from Baseline Mean +/− SE ([2]; Study #1, 16 weeks)	Total Hair Count Difference of CFBs (active minus vehicle) Mean +/− SE ([2]; Study #1, 16 weeks)	ANAGEN Hair counts Change from Baseline Mean +/− SE [4]	ANAGEN Hair counts Difference of CFBs Mean +/− SE [4]	EC50 (VEGF) [µM]	EC50 (HIF-1α; Fibroblast) [µM]	EC50 (VEGF; Fibroblast) [µM]	further results
Nc1cc(N2CCCCC2)nc(N)[n+]1[O-] [Minoxidil, reference compound]	−4.07 +/− 1.71 hairs/cm^2	−7.45 +/− 1.85 hairs/cm^2	14.3 +/− 2.98 hairs/cm^2	11.29 +/− 3.02 hairs/cm^2	14.83 +/− 3.53 hairs/cm^2	13.45 +/− 3.47 hairs/cm^2	8.66 +/− 1.75 hairs/cm^2	7.79 +/− 1.87 hairs/cm^2				Total Hair Count Change from Baseline Mean +/− SE [3, 5]: 12.93 +/− 1.77 hairs/cm^2; Total Hair Count Difference of CFBs (active minus vehicle) Mean +/− SE [3, 5]: 5.76 +/− 2.1 hairs/cm^2
CCCCCCCCOc1cccc(=O)n1O [N-Hydroxy-6-octyloxypyridine-2(1H)one, ethanolamine salt]									13			
Cc1cc(CC(C)CC(C)(C)C)n(O)c(=O)c1 (stereo not shown) [1-Hydroxy-4-methyl-6-(2,4,4-trimethylpentyl)pyridin-2(1H)-one ethanolammonium salt]									2.1			EC50 (HIF-1α): 0.4 µM
CCCCCCCCOc1cccc(=O)n1O [N-Hydroxy-6-octyloxypyridine-2(1H)one]	2.96 +/− 1.11 hairs/cm^2	0.51 +/− 1.21 hairs/cm^2	6.15 +/− 1.91 hairs/cm^2	3.94 +/− 1.71 hairs/cm^2	3.11 +/− 1.79 hairs/cm^2	3.27 +/− 1.73 hairs/cm^2	3.82 +/− 1.14 hairs/cm^2	3.18 +/− 1.22 hairs/cm^2		17	30	telogen effluvium (shedding) ([1]; conclusion drawn from telogen counts): will not cause telogen effluvium; number of telogen (resting) hairs (in words) [1, 6]: little or no effect; hair count response as share of the minoxidil response, on average ([2]; Study #1, average of week 8 and 16): 29%; hair count from baseline and above vehicle treatment (in words) ([2]; Study #1, week 8 & 16 (p=0.019 and p=0.045)): significant increase in hair count; Total Hair Count Change from Baseline Mean +/− SE ([3]; Study #2, 8 weeks, 0.9%): 10.13 +/− 1.15 hairs/cm^2; Total Hair Count Difference of CFBs (active minus vehicle) Mean +/− SE ([3]; Study #2, 8 weeks, 0.9%): 3.35 +/− 1.37 hairs/cm^2; number of anagen (growing) hairs (in words) [4, 6]: significant increase in growing hairs
CCOC(=O)c1ccnc(C(=O)OCC)c1 [2,4-DPD, 2,4-pyridinedicarboxylic acid, diethyl ester, reference compound]										406		EC50 VEGF Induction (VEGF): no response
Cc1cc(C2CCCCC2)n(O)c(=O)c1 [6-cyclohexyl-1-hydroxy-4-methyl-2(1H)-pyridinone]										3.9	2.5	
